Data from patent US6348609B1, “Method for obtaining an oil that is rich in hydroxyoctadecadienoic fatty acids (HODE) or the esters thereof from a mixture containing linoleic acid or the esters thereof” (Laboratoires Arkopharma, priority 1999, dated 2002).

How the values were obtained:
human adipocytes = assay: production of cAMP in human adipocytes (lipolysis activation); assay type: cell-based
Excerpt: The aim of this study is to study the effect of 9-HODE on the production of cAMP (cyclic adenosine monophosphate) which is a lipolysis activator, in human adipocytes. The effect of 9-HODE is studied relative to that of adrenaline and caffeine which are two molecules that are known for their lipolysis-stimulating effects.

[1] = skin penetration in vitro on human skin with Franz cells; assay type: in vitro ADME
Description: A study of skin penetration is carried out in vitro on human skin with Franz cells. These cells comprise a surface area of human skin of 1.76 cm^2 on which is placed 800 μg of 9-HODE. After 6 hours of contact, an assay of the 9-HODE is carried out by gas chromatography at the surface of the human skin sample, in the epidermis, in the dermis and in the receiving phase.

[2] = 9-HODE 10^−4 M, human adipocytes
[3] = 800 μg on 1.76 cm^2 human skin, after 6 hours of contact

Row | Compound | concentration of cAMP, times greater than that obtained with caffeine (human adipocytes; 9-HODE 10^−3 M, human adipocytes) [times] | increase in cAMP relative to adrenaline (human adipocytes; [2]) | increase in cAMP relative to caffeine (human adipocytes; [2]) | concentration of cAMP (human adipocytes; 9-HODE concentration of 10^−3 M, human adipocytes) | conclusion on lipolysis activation in vitro (human adipocytes; in vitro, by stimulating production of cAMP by adipocytes) | 9-HODE assayed at the surface of the skin [1, 3] [%] | 9-HODE assayed in the dermis [1, 3] [%] | 9-HODE assayed in the epidermis [1, 3] [%] | 9-HODE assayed in the receiving phase [1, 3] [%] | skin-penetrating power ([1]; human skin, Franz cells) | concentration of cAMP (human adipocytes; caffeine comparator, concentration not given, human adipocytes)
1 | CCCCCC=CC=CC(O)CCCCCCCC(=O)O (centres unmarked) [9-HODE, 9-hydroxy-10,12-octadecadienoic acid] | 10 | greater than that obtained, irrespective of the concentration, by adrenaline | equivalent to that of caffeine 10^−3 M | 7.940 femtomol of cAMP/million adipocytes | powerful lipolysis activator | 33 | 32 | 11 | 24 | high skin-penetrating power | 
2 | Cn1c(=O)c2c(ncn2C)n(C)c1=O [caffeine, reference compound] |  |  |  |  |  |  |  |  |  |  | 799 femtomol of cAMP/million adipocytes
